# Experimental data taken from patent publication US10167262B2, “Herbicidal substituted 3-arylpyrazoles” (FMC CORPORATION, priority 2014, dated 2019).
# Key:
# Assay type in all cases: in vivo
# [1] = test system: morningglory (Ipomoea spp.); assay: Test A pre-/postemergence greenhouse herbicide test, visual injury rating 0-100
# Outline: (§1)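 Planting in a loam and sand mixture preceded a directed preemergence soil spray; postemergence spray was applied concurrently to one- to two-leaf plants. After roughly 10 days under glass, injury is scored visually against untreated controls, 0–100.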
# [2] = test system: pigweed (Amaranthus retroflexus); assay: as above
# Outline: as §1
# [3] = test system: giant foxtail (Setaria faberii); assay: as above
# Outline: as §1
# [4] = test system: wheat (Triticum aestivum); assay: as above
# Outline: as §1
# [5] = test system: large (Lg) crabgrass (Digitaria sanguinalis); assay: as above
# Outline: as §1
# corn (Zea mays) = assay: as above
# Outline: as §1
# [6] = test system: barnyardgrass (Echinochloa crus-galli); assay: as above
# Outline: as §1
# [7] = test system: velvetleaf (Abutilon theophrasti); assay: as above
# Outline: as §1
# [8] = test system: galium (catchweed bedstraw, Galium aparine); assay: Test C pre-/postemergence greenhouse test, plant response rating 0-100; conditions: Postemergence; for Plant response rating, Galium: scale 0 to 100
# Outline: (§2)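 Plants were treated either at seeding (soil of loam and sand) or as 2–18 cm seedlings in a sphagnum peat mix, using test chemicals in a surfactant-containing non-phytotoxic solvent. Visual assessment relative to controls followed 13–15 days later.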
# [9] = test system: yellow nutsedge (Cyperus esculentus); assay: as above; conditions: Postemergence; for Plant response rating, Nutsedge, Yellow: scale 0 to 100
# Outline: as §2
# [10] = test system: large (Lg) crabgrass (Digitaria sanguinalis); assay: as above; conditions: Postemergence; for Plant response rating, Crabgrass, Large: scale 0 to 100
# Outline: as §2
# [11] = test system: ragweed (common ragweed, Ambrosia elatior); assay: as above; conditions: Postemergence; for Plant response rating, Ragweed: scale 0 to 100
# Outline: as §2
# [12] = test system: Italian ryegrass (Lolium multiflorum); assay: as above; conditions: Postemergence; for Plant response rating, Ryegrass, Italian: scale 0 to 100
# Outline: as §2
smiles,measurement,setting,value
Fc1ccccc1NN=C(c1ccccc1)c1c[nH]nc1-c1cc(Cl)cc(Cl)c1 [Compound 57],"Plant response rating (0 to 100 scale), Morningglory","[1]; Postemergence, 1000 g ai/ha",0
same,"Plant response rating (0 to 100 scale), Morningglory","[1]; Preemergence, 1000 g ai/ha",0
same,"Plant response rating (0 to 100 scale), Pigweed","[2]; Postemergence, 1000 g ai/ha",90
same,"Plant response rating (0 to 100 scale), Pigweed","[2]; Preemergence, 1000 g ai/ha",90
same,"Plant response rating (0 to 100 scale), Foxtail, Giant","[3]; Postemergence, 1000 g ai/ha",0
same,"Plant response rating (0 to 100 scale), Foxtail, Giant","[3]; Preemergence, 1000 g ai/ha",0
same,"Plant response rating (0 to 100 scale), Wheat","[4]; Postemergence, 1000 g ai/ha",0
same,"Plant response rating (0 to 100 scale), Wheat","[4]; Preemergence, 1000 g ai/ha",0
same,"Plant response rating (0 to 100 scale), Crabgrass, Large","[5]; Postemergence, 1000 g ai/ha",0
same,"Plant response rating (0 to 100 scale), Crabgrass, Large","[5]; Preemergence, 1000 g ai/ha",0
same,"Plant response rating (0 to 100 scale), Corn","corn (Zea mays); Postemergence, 1000 g ai/ha",0
same,"Plant response rating (0 to 100 scale), Corn","corn (Zea mays); Preemergence, 1000 g ai/ha",0
same,"Plant response rating (0 to 100 scale), Barnyardgrass","[6]; Postemergence, 1000 g ai/ha",0
same,"Plant response rating (0 to 100 scale), Barnyardgrass","[6]; Preemergence, 1000 g ai/ha",0
same,"Plant response rating (0 to 100 scale), Velvetleaf","[7]; Postemergence, 1000 g ai/ha",100
same,"Plant response rating (0 to 100 scale), Velvetleaf","[7]; Preemergence, 1000 g ai/ha",80
same,"Plant response rating (0 to 100), Galium",[8]; 31 g ai/ha,0
same,"Plant response rating (0 to 100), Galium",[8]; 62 g ai/ha,0
same,"Plant response rating (0 to 100), Galium",[8]; 125 g ai/ha,0
same,"Plant response rating, Galium",[8]; 250 g ai/ha,0
same,"Plant response rating (0 to 100), Nutsedge, Yellow",[9]; 62 g ai/ha,0
same,"Plant response rating (0 to 100), Nutsedge, Yellow",[9]; 125 g ai/ha,0
same,"Plant response rating, Nutsedge, Yellow",[9]; 250 g ai/ha,5
same,"Plant response rating (0 to 100), Crabgrass, Large",[10]; 31 g ai/ha,0
same,"Plant response rating (0 to 100), Crabgrass, Large",[10]; 62 g ai/ha,0
same,"Plant response rating (0 to 100), Crabgrass, Large",[10]; 125 g ai/ha,0
same,"Plant response rating, Crabgrass, Large",[10]; 250 g ai/ha,5
same,"Plant response rating (0 to 100), Ragweed",[11]; 62 g ai/ha,15
same,"Plant response rating (0 to 100), Ragweed",[11]; 125 g ai/ha,65
same,"Plant response rating, Ragweed",[11]; 250 g ai/ha,70
same,"Plant response rating (0 to 100), Ryegrass, Italian",[12]; 62 g ai/ha,0
same,"Plant response rating (0 to 100), Ryegrass, Italian",[12]; 125 g ai/ha,0
same,"Plant response rating, Ryegrass, Italian",[12]; 250 g ai/ha,0
Fc1cccc(NN=C(c2ccccc2)c2c[nH]nc2-c2cc(Cl)cc(Cl)c2)c1 [Compound 58],"Plant response rating (0 to 100 scale), Morningglory","[1]; Postemergence, 1000 g ai/ha",0
same,"Plant response rating (0 to 100 scale), Morningglory","[1]; Preemergence, 1000 g ai/ha",0
same,"Plant response rating (0 to 100 scale), Pigweed","[2]; Postemergence, 1000 g ai/ha",90
same,"Plant response rating (0 to 100 scale), Pigweed","[2]; Preemergence, 1000 g ai/ha",100
same,"Plant response rating (0 to 100 scale), Foxtail, Giant","[3]; Postemergence, 1000 g ai/ha",0
same,"Plant response rating (0 to 100 scale), Foxtail, Giant","[3]; Preemergence, 1000 g ai/ha",0
same,"Plant response rating (0 to 100 scale), Wheat","[4]; Postemergence, 1000 g ai/ha",0
same,"Plant response rating (0 to 100 scale), Wheat","[4]; Preemergence, 1000 g ai/ha",0
same,"Plant response rating (0 to 100 scale), Crabgrass, Large","[5]; Postemergence, 1000 g ai/ha",0
same,"Plant response rating (0 to 100 scale), Crabgrass, Large","[5]; Preemergence, 1000 g ai/ha",0
same,"Plant response rating (0 to 100 scale), Corn","corn (Zea mays); Postemergence, 1000 g ai/ha",0
same,"Plant response rating (0 to 100 scale), Corn","corn (Zea mays); Preemergence, 1000 g ai/ha",0
same,"Plant response rating (0 to 100 scale), Barnyardgrass","[6]; Postemergence, 1000 g ai/ha",0
same,"Plant response rating (0 to 100 scale), Barnyardgrass","[6]; Preemergence, 1000 g ai/ha",0
same,"Plant response rating (0 to 100 scale), Velvetleaf","[7]; Postemergence, 1000 g ai/ha",90
same,"Plant response rating (0 to 100 scale), Velvetleaf","[7]; Preemergence, 1000 g ai/ha",90
same,"Plant response rating (0 to 100), Galium",[8]; 62 g ai/ha,0
same,"Plant response rating (0 to 100), Galium",[8]; 125 g ai/ha,0
same,"Plant response rating, Galium",[8]; 250 g ai/ha,0
same,"Plant response rating, Galium",[8]; 500 g ai/ha,5
same,"Plant response rating (0 to 100), Nutsedge, Yellow",[9]; 62 g ai/ha,0
same,"Plant response rating (0 to 100), Nutsedge, Yellow",[9]; 125 g ai/ha,0
same,"Plant response rating, Nutsedge, Yellow",[9]; 250 g ai/ha,0
same,"Plant response rating, Nutsedge, Yellow",[9]; 500 g ai/ha,0
same,"Plant response rating (0 to 100), Crabgrass, Large",[10]; 62 g ai/ha,5
same,"Plant response rating (0 to 100), Crabgrass, Large",[10]; 125 g ai/ha,5
same,"Plant response rating, Crabgrass, Large",[10]; 250 g ai/ha,5
same,"Plant response rating, Crabgrass, Large",[10]; 500 g ai/ha,5
same,"Plant response rating (0 to 100), Ragweed",[11]; 62 g ai/ha,10
same,"Plant response rating (0 to 100), Ragweed",[11]; 125 g ai/ha,40
same,"Plant response rating, Ragweed",[11]; 250 g ai/ha,50
same,"Plant response rating, Ragweed",[11]; 500 g ai/ha,65
same,"Plant response rating (0 to 100), Ryegrass, Italian",[12]; 62 g ai/ha,0
same,"Plant response rating (0 to 100), Ryegrass, Italian",[12]; 125 g ai/ha,0
same,"Plant response rating, Ryegrass, Italian",[12]; 250 g ai/ha,0
same,"Plant response rating, Ryegrass, Italian",[12]; 500 g ai/ha,0
C=CCn1cc(C(=O)c2ccccc2)c(-c2cc(Cl)cc(Cl)c2)n1 [Compound 60],"Plant response rating (0 to 100 scale), Morningglory","[1]; Postemergence, 125 g ai/ha",0
same,"Plant response rating (0 to 100 scale), Morningglory","[1]; Postemergence, 500 g ai/ha",0
same,"Morningglory plant response rating (0 = no effect, 100 = complete control)","[1]; Preemergence, 125 g ai/ha",0
same,"Plant response rating (0 to 100 scale), Morningglory","[1]; Preemergence, 500 g ai/ha",0
same,"Plant response rating (0 to 100 scale), Pigweed","[2]; Postemergence, 125 g ai/ha",80
same,"Plant response rating (0 to 100 scale), Pigweed","[2]; Postemergence, 500 g ai/ha",90
same,"Pigweed plant response rating (0 = no effect, 100 = complete control)","[2]; Preemergence, 125 g ai/ha",60
same,"Plant response rating (0 to 100 scale), Pigweed","[2]; Preemergence, 500 g ai/ha",90
same,"Plant response rating (0 to 100 scale), Foxtail, Giant","[3]; Postemergence, 125 g ai/ha",0
same,"Plant response rating (0 to 100 scale), Foxtail, Giant","[3]; Postemergence, 500 g ai/ha",0
same,"Foxtail, Giant plant response rating (0 = no effect, 100 = complete control)","[3]; Preemergence, 125 g ai/ha",0
same,"Plant response rating (0 to 100 scale), Foxtail, Giant","[3]; Preemergence, 500 g ai/ha",0
same,"Plant response rating (0 to 100 scale), Wheat","[4]; Postemergence, 125 g ai/ha",0
same,"Plant response rating (0 to 100 scale), Wheat","[4]; Postemergence, 500 g ai/ha",0
same,"Wheat plant response rating (0 = no effect, 100 = complete control)","[4]; Preemergence, 125 g ai/ha",0
same,"Plant response rating (0 to 100 scale), Crabgrass, Large","[5]; Postemergence, 125 g ai/ha",0
same,"Plant response rating (0 to 100 scale), Crabgrass, Large","[5]; Postemergence, 500 g ai/ha",0
same,"Crabgrass, Large plant response rating (0 = no effect, 100 = complete control)","[5]; Preemergence, 125 g ai/ha",0
same,"Plant response rating (0 to 100 scale), Crabgrass, Large","[5]; Preemergence, 500 g ai/ha",0
same,"Plant response rating (0 to 100 scale), Corn","corn (Zea mays); Postemergence, 125 g ai/ha",0
same,"Plant response rating (0 to 100 scale), Corn","corn (Zea mays); Postemergence, 500 g ai/ha",0
same,"Corn plant response rating (0 = no effect, 100 = complete control)","corn (Zea mays); Preemergence, 125 g ai/ha",0
same,"Plant response rating (0 to 100 scale), Corn","corn (Zea mays); Preemergence, 500 g ai/ha",0
same,"Plant response rating (0 to 100 scale), Barnyardgrass","[6]; Postemergence, 125 g ai/ha",0
same,"Plant response rating (0 to 100 scale), Barnyardgrass","[6]; Postemergence, 500 g ai/ha",0
same,"Barnyardgrass plant response rating (0 = no effect, 100 = complete control)","[6]; Preemergence, 125 g ai/ha",0
same,"Plant response rating (0 to 100 scale), Barnyardgrass","[6]; Preemergence, 500 g ai/ha",0
same,"Plant response rating (0 to 100 scale), Velvetleaf","[7]; Postemergence, 125 g ai/ha",90
same,"Plant response rating (0 to 100 scale), Velvetleaf","[7]; Postemergence, 500 g ai/ha",90
same,"Velvetleaf plant response rating (0 = no effect, 100 = complete control)","[7]; Preemergence, 125 g ai/ha",30
same,"Plant response rating (0 to 100 scale), Velvetleaf","[7]; Preemergence, 500 g ai/ha",40
same,"Plant response rating (0 to 100), Galium",[8]; 31 g ai/ha,0
same,"Plant response rating (0 to 100), Galium",[8]; 62 g ai/ha,0
same,"Plant response rating (0 to 100), Galium",[8]; 125 g ai/ha,0
same,"Plant response rating, Galium",[8]; 250 g ai/ha,0
same,"Plant response rating (0 to 100), Nutsedge, Yellow",[9]; 62 g ai/ha,0
same,"Plant response rating (0 to 100), Nutsedge, Yellow",[9]; 125 g ai/ha,0
same,"Plant response rating, Nutsedge, Yellow",[9]; 250 g ai/ha,0
same,"Plant response rating (0 to 100), Crabgrass, Large",[10]; 31 g ai/ha,0
same,"Plant response rating (0 to 100), Crabgrass, Large",[10]; 62 g ai/ha,0
same,"Plant response rating (0 to 100), Crabgrass, Large",[10]; 125 g ai/ha,5
same,"Plant response rating, Crabgrass, Large",[10]; 250 g ai/ha,5
same,"Plant response rating (0 to 100), Ragweed",[11]; 62 g ai/ha,30
same,"Plant response rating (0 to 100), Ragweed",[11]; 125 g ai/ha,30
same,"Plant response rating, Ragweed",[11]; 250 g ai/ha,35
same,"Plant response rating (0 to 100), Ryegrass, Italian",[12]; 62 g ai/ha,0
same,"Plant response rating (0 to 100), Ryegrass, Italian",[12]; 125 g ai/ha,0
same,"Plant response rating, Ryegrass, Italian",[12]; 250 g ai/ha,0
